Data as given in patent EP4592286A1, “MACROCYCLIC NITROGEN-CONTAINING CROWN ETHER COMPOUND AND USE THEREOF AS PROTEIN KINASE INHIBITOR” (Artivila Biopharma, priority 2022, dated 2024).

What was measured:
TYK2 = TYK2 (Homo sapiens, UniProt P29597); experiment: experiment of inhibiting kinase activity, TYK2; type: biochemical; settings: read-out: inhibition rate TYK2; for inhibition at 0.01 µM: at 10 nM; for inhibition at 0.1 µM: at 100 nM
Experimental: The inhibition rates of tested compounds on JAK1, JAK2, JAK3, TYK2, CDK7, CDK9, EGFR (T790M) and LRRK2 kinases were measured. The test concentrations of the compounds were 10 nM and 100 nM, and the detection was performed by replicate wells. Alternatively, compounds were 3-fold serial diluted from 10 µM for 10 concentrations in replicate wells.

JAK2 = target: T1, JAK2 (Mus musculus, UniProt Q62120); experiment: JAKs cell activity test: JAK2_pSTAT5 in IL-3-induced BAF3 cells; type: cell-based; settings: pSTAT5, IL-3-induced BAF3 cells
T1 construct: endogenous in cells; host or cells: BAF3
Experimental: (§1) THP1 cells were collected by centrifugation, resuspended with 1×HBSS, counted and diluted to a certain cell density. They were inoculated in a 384-well plate and cultured in a saturated humidity incubator with 37 °C and 5% CO2. The compound (DMSO final volume of 0.3%) was added to THP1 cells (10 doses in duplicates) and cultured in a saturated humidity incubator with 37 °C and 5% CO2. hIL-4 was added to stimulate cells and cultured in a saturated humidity incubator with 37 °C and 5% CO2. The lysis solution was added and incubated at room temperature. According to the instructions of AlphaLISA SureFire Ultra p-STAT6 detection kit, the lysis solution was transferred to pSTAT6 detection system, and the ALPHA signal was read by PE Envision microplate reader. The inhibition rate Inh%=((DMSO-sample)/(DMSO-background))×100 was calculated. IC50 was obtained by fitting with GraphPad Prism non-linear regression equation, and y=Bottom+(Top-Bottom)/(1+10^((LogIC50-x)×hillslope)), where x was the concentration of the compound and y was the inhibition rate.
(§2) JAK2_pSTAT5 was tesed in IL-3-induced BAF3 cells according to the above steps, and JAK3_pSTAT5 was tested in IL-2-induced CTLL-2 cells (without serum stimulation) according to the above steps.

JAK3 = target: T2, JAK3 (Mus musculus, UniProt Q62137); experiment: JAKs cell activity test: JAK3_pSTAT5 in IL-2-induced CTLL-2 cells; type: cell-based; settings: pSTAT5, IL-2-induced CTLL-2 cells
T2 construct: endogenous in cells; host or cells: CTLL-2
T2 sequence (Q62137 1-1100): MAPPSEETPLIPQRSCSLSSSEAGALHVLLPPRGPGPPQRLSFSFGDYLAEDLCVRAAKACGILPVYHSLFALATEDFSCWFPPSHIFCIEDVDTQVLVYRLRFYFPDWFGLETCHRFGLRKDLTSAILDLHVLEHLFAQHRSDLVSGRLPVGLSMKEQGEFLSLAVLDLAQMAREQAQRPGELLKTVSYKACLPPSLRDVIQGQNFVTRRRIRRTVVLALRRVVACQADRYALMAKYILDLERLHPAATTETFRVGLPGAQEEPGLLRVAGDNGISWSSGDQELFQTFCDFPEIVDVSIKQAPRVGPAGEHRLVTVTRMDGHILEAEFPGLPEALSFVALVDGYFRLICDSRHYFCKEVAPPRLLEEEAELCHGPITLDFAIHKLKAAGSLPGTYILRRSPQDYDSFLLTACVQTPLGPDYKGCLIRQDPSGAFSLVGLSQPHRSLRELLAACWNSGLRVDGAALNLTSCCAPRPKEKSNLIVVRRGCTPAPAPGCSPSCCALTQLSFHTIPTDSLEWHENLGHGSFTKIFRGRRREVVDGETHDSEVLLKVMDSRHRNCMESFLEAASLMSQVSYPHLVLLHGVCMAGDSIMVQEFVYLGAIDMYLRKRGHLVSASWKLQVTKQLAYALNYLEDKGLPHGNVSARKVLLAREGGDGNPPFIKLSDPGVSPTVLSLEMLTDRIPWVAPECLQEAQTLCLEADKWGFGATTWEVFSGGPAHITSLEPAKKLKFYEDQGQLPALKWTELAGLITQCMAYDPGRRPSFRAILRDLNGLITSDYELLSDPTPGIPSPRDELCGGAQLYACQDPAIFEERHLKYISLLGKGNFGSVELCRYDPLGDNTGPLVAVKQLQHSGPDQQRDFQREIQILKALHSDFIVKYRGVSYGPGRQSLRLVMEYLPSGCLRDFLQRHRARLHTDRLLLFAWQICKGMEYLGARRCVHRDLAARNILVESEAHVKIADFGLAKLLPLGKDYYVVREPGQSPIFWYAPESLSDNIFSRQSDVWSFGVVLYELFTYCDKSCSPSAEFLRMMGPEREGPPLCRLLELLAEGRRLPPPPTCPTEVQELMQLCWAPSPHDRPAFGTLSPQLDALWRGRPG
Experimental: as §1, §2

MV-4-11 cells = experiment: CDK9 cell activity test (Cell Titer-GLO cell growth inhibition), MV-4-11; type: cell-based; settings: Homo sapiens, MV4-11, 72 hours
Experimental: (§3) In these experiments, the cell line MV-4-11 was cultured in IMDM culture solution (containing 100 U/mL penicillin and 0.1 g/L streptomycin), the cell line HCC1187 was cultured in RPMI-1640 culture solution (containing 100 U/mL penicillin and 0.1 g/L streptomycin) containing 10% fetal bovine serum, the cell line Mia Paca-2 was cultured in DMEM (containing 100 U/mL penicillin and 0.1 g/L streptomycin) containing 10% fetal bovine serum and 2.5% horse serum, and the cell line A375 was cultured in RPMI-1640 culture solution (containing 100 U/mL penicillin and 0.1 g/L streptomycin) containing 10% fetal bovine serum. All cells were cultured in a saturated humidity incubator with 37 °C and 5% CO2.
When MV-4-11 cells, HCC-1187 cells, Mia Paca-2 cells and A375 cells grew to 80% -90% confleuncy, they were digested with trypsin, resuspended, counted and diluted to a certain cell density with complete medium, and inoculated into 96-well plate at 100 µL/well. With complete medium as background control, they were cultured overnight in a saturated humidity incubator with 37°C and 5% CO2. The compound was diluted to 200-fold of the final concentration using DMSO, 3 µL of DMSO storage solution of the above compound was added to 197 µL of complete medium, 50 µL of compound diluted in medium was added to cells in each well, and cultivated in a saturated humidity incubator with 37°C and 5% CO2 for 72 hours. After 72 hours, the culture plate was placed at room temperature for equilibrium, and 40 µl of Cell Titer-GLO® reagent was added to each well. The cells were lysed by mixing evenly for 2 minutes using a shaker, incubated at room temperature for 60 minutes to stabilize the chemiluminescence signal, and the chemiluminescence was read by PE EnVision microtiter plate reader. The cell growth inhibition rate Inh%=(DMSO well - compound treatment well)/(DMSO well - background well)×100 was calculated, and the cell growth IC50 value was obtained by fitting with GraphPad Prism 5 .

HCC-1187 cells = experiment: CDK9 cell activity test (Cell Titer-GLO cell growth inhibition), HCC1187; type: cell-based; settings: Homo sapiens, HCC1187, 72 h
Experimental: as §3
When MV-4-11 cells, HCC-1187 cells, Mia Paca-2 cells and A375 cells grew to 80% -90% confleuncy, they were digested with trypsin, resuspended, counted and diluted to a certain cell density with complete medium, and inoculated into 96-well plate at 100 µL/well. […] The cells were lysed by mixing evenly for 2 minutes using a shaker, incubated at room temperature for 60 minutes to stabilize the chemiluminescence signal, and the chemiluminescence was read by PE EnVision microtiter plate reader. The cell growth inhibition rate Inh%=(DMSO well - compound treatment well)/(DMSO well - background well)×100 was calculated, and the cell growth IC50 value was obtained by fitting with GraphPad Prism 5 .

Sequence of TYK2 (P29597 whole entry): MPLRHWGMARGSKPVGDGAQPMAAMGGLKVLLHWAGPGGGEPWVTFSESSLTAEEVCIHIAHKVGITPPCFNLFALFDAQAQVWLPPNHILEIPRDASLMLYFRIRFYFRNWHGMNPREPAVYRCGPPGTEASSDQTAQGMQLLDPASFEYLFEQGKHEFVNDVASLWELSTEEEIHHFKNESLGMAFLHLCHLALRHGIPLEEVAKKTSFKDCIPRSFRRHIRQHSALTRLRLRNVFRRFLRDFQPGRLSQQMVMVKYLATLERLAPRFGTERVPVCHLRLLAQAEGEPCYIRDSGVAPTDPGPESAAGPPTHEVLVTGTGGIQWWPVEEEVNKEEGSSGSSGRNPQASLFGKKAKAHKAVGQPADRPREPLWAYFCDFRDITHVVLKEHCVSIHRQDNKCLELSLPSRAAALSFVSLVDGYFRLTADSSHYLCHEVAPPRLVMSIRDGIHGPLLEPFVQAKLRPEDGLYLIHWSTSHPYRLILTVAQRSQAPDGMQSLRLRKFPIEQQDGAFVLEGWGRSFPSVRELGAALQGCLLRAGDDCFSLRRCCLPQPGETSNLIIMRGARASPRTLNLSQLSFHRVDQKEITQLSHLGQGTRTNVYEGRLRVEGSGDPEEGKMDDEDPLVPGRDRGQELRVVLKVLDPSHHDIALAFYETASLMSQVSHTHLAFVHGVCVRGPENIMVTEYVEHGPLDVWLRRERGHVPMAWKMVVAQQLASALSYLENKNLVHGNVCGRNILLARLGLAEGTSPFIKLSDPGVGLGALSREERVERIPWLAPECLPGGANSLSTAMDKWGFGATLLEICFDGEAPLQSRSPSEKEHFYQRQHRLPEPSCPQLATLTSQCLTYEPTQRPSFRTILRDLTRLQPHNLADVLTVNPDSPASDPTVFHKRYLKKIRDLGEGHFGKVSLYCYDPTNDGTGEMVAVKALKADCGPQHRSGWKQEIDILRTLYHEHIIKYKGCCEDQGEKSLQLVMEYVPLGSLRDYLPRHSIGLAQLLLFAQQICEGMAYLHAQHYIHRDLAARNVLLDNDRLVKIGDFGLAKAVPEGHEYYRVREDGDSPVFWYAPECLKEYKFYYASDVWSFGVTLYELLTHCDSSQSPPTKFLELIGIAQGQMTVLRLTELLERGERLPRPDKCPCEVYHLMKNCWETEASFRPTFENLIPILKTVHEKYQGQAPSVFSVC
T1 sequence (Q62120 whole entry): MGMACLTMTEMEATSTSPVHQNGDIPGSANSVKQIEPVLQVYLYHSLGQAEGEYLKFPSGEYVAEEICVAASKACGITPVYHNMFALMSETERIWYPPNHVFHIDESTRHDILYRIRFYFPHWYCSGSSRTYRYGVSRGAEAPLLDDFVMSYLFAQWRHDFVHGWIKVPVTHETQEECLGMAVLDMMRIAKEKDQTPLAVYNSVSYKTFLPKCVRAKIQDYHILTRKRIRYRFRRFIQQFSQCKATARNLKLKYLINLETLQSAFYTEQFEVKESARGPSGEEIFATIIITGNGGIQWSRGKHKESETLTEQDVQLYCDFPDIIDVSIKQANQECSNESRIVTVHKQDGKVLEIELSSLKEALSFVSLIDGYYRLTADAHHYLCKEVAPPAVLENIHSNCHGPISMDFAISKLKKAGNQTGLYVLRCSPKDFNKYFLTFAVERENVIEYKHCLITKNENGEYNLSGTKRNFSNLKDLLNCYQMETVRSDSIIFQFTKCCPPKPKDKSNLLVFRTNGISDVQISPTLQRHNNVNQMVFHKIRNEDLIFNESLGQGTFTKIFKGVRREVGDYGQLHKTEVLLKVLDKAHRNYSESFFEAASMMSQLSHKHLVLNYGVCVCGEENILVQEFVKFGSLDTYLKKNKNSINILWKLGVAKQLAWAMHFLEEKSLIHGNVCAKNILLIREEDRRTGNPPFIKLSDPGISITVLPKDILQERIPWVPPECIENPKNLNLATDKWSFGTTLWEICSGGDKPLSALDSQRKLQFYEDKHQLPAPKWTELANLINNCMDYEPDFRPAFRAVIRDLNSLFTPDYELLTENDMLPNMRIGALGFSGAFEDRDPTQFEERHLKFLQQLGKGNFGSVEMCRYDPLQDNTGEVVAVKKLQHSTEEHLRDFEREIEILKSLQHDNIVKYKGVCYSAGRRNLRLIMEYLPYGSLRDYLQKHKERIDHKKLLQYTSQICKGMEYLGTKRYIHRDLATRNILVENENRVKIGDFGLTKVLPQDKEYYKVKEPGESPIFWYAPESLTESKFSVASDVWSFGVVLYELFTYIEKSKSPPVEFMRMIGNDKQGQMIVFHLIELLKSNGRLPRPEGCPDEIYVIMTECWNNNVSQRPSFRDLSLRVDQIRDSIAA

Row | inhibition at 0.01 µM (TYK2) | inhibition at 0.1 µM (TYK2) | EC50 (JAK2) | EC50 (JAK3) | IC50 (MV-4-11 cells) | IC50 (HCC-1187 cells; first HCC1187 column (c2)) | IC50 (HCC-1187 cells; second HCC1187 column (c3)) | SMILES
1 | > 80% | > 80% | 500 to 5000 nM | 500 to 5000 nM | – | – | – | CN1CCOCCOc2cc(Nc3nc(-c4cnn(C(CC#N)C5CCCC5)c4)c4cc[nH]c4n3)ccc2OCC1 (stereo not shown) [Example 26, 3-cyclopentyl-3-(4-(2-((7-methyl-2,3,6,7,8,9-hexahydro-5H-benzo[b][1,4,7]trioxa[10]azacyclododecan-13-yl)amino)-7H-pyrrolo[2,3-d]pytimidin-4-yl)-1H-pyrazol-1-yl)propionitrile]
2 | 40 to 79% | > 80% | – | – | < 100 nM | 1000 to 5000 nM | 100 to 1000 nM | CN1CCOCCOc2cc(Nc3ncc(F)c(-c4ccc(C(=O)NCC#N)cc4)n3)ccc2OCC1 [Example 16, N-(cyanomethyl)-4-(5-fluoro-2-((7-methyl-2,3,6,7,8,9-hexahydro-5H-benzo[b][1,4,7]trioxa[10]azacyclododecan-13-yl)amino)pyrimidin-4-yl)benzamide]
3 | – | – | – | < 50 nM | – | – | – | CCS(=O)(=O)N1CC(CC#N)(n2cc(-c3nc(Nc4ccc5c(c4)OCCN(C)CCO5)nc4[nH]ccc34)cn2)C1 [Example 28, 2-(1-(ethylsulfonyl)-3-(4-(2-((4-methyl-3,4,5,6-tetrahydro-2H-benzo[b][1,4,7]dioxazolin-9-yl)amino)-7H-pyrrolo[2,3-d]pytimidin-4-yl)-1H-pyrazol-1-yl)azetidin-3-yl) acetonitrile]
